For one experiment, the system named is ATF4. Briefly: ATF4 expression inhibition assay (ATF4 5'UTR luciferase reporter, Tg-stressed HEK293T cells). The experiment is classed as cell-based, human. The settings on record: 100 nM thapsigargin, 3 hours, HEK293T ATF4 luciferase reporter; read-out: ATF4 inhbition IC50. A digest of the protocol: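 HEK293T stably expressing luciferase fused downstream of human full-length ATF4 5′UTR, stressed with 100 nM thapsigargin plus compound (100 nM or 1 μM; IC50 series 0.1 nM to 1 μM) for 3 h at 37° C. Luminescence normalized to Tg alone (0%) and untreated cells (100% inhibition).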
In general terms: Reporter assays use an easily measured gene product as a stand-in for the process of interest.

Another experiment concerns HEK293T cells. Kind of experiment: Recovery of protein translation in stressed HEK293T cells. It is filed as cell-based, human. The settings on record: up to 200-fold its IC50 value (FIG. 2). The source says:
Despite the great potency on the inhibition of ATF4 expression, ISRIB is not able to completely restore protein synthesis when the global protein translation is decreased under these stress conditions. […] Compound 4 has a great potency for the inhibition of ATF4 expression under stress condition (FIG. 3) and is much better at restoring global protein translation under ER stress-mediated repression and going beyond a 100% recovery (FIG. 4).

Experiment [1] concerns hippocampal slices from transgenic APP/PS1 mice. Briefly: Electrophysiology and long-term potentiation in hippocampal slices. The settings on record: slices from APP/PS1 mouse, 5 μM, 20 min before stimulation (FIGS. 5A, 5B). As to the method: Hippocampal slices were prepared as described in Ardiles et al., Pannexin 1 regulates bidirectional hippocampal synaptic plasticity in adult mice. Front Cell Neurosci, vol. 8, art. 326 (2014). Six to nine-month-old WT C57BL/6 or transgenic APP/PS1 mice (Jackson Lab 34829-JAX) were deeply anesthetized with isoflurane and their brains were quickly removed. 5-10 slices (350 μm) from each animal were dissected in ice-cold dissection buffer using a vibratome (Leica VT1200S, Leica Microsystems, Nussloch, Germany). Slices were incubated with 5 μM ISRIB (trans-N,N′-1,4-cyclohexanediylbis[2-(4-chlorophenoxy)-acetamide) or a vehicle (complete medium containing 0.1% DMSO) 20 min before conditioning stimulation. Synaptic responses were evoked by stimulating the Schaffer collaterals with 0.2 ms pulses delivered through concentric bipolar stimulating electrodes, and recorded extracellularly in the stratum radiatum of the CA1 subfield. Long-term potentiation (LTP) was induced by four-theta burst stimulation (TBS) (10 trains of four pulses at 100 Hz; 5 Hz inter-burst interval) delivered at 0.1 Hz. LTP magnitude based on field excitatory postsynaptic potential (fEPSP) was calculated as the average (normalized to baseline) of the responses recorded 60 min after conditioning stimulation. Similar experiments can be performed using a test compound in place of ISRIB.

Consider one compound from patent US11166942B2 (PRAXIS BIOTECH LLC, priority 2018, dated 2021).

Structures are written as SMILES.

On to `O=C(COc1ccc(Cl)cc1)N[C@H]1CC[C@H](NC(=O)COc2ccc(Cl)cc2)CC1` [ISRIB, reference compound], for which, in the experiment with ATF4, the IC50 (usually the concentration needed to halve the response being measured) turned out to be 5 nM. In the experiment with HEK293T cells, the “restoration of protein translation in stressed cells” value is “only partially restores protein translation”. For the same compound, the “long-term potentiation (LTP, fEPSP slope) 60 min after theta burst stimulation” value in experiment [1] is on record as “partial LTP recovery”.
